According to patent publication US11440922B2, “Heterocyclylmethylidene derivatives and their use as modulators of mGluR5 receptors” (Recordati Industria Chimica e Farmaceutica S.p.A., priority 2017, dated 2022):
pEC50, pIC50, pKi: −log10 of the molar value. Blank lines part the entries; values can stand above or below the compound they belong to.

Experiments:
[1] = target: human mGluR5 receptor (Homo sapiens (Human), UniProt P41594); experiment: Radioligand binding assay at cloned human mGluR5 receptor subtype ([3H]MPEP); conditions: 4 nM [3H]MPEP, CHO T-REx h-mGluR5 cells, 60 min at 25° C.; read-out: mGlu5 Ki
Chain of human mGluR5 receptor (P41594 21-1212): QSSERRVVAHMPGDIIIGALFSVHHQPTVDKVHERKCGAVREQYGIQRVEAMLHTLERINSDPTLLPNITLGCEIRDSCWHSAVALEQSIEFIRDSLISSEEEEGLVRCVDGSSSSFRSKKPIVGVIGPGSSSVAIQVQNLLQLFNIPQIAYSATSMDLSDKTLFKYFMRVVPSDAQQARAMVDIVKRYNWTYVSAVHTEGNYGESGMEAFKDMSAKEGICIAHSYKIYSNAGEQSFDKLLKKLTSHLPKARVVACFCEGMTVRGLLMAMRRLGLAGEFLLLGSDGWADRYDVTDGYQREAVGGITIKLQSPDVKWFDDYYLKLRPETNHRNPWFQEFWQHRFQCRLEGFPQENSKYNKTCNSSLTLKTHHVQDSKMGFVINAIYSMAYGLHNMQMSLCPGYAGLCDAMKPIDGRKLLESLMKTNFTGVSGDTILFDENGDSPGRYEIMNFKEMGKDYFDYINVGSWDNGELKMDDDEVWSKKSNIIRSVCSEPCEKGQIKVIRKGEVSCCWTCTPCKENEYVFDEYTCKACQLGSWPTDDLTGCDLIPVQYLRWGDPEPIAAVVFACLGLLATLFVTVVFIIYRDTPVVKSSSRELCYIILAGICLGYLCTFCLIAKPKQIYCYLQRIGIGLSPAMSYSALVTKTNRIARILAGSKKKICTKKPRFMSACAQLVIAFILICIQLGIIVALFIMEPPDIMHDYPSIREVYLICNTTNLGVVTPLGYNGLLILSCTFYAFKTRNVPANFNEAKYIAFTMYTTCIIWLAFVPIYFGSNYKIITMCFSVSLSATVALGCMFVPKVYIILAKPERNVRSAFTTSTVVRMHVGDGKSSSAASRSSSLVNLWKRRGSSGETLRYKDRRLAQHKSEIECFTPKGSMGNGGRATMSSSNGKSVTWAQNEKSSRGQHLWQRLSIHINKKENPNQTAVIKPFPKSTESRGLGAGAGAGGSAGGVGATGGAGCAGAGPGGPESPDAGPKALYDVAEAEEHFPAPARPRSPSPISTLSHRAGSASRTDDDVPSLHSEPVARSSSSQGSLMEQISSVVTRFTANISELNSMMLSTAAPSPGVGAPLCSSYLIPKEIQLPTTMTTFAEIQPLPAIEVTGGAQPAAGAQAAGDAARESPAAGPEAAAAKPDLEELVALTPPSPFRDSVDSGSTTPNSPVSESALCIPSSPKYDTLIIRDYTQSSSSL
Text: (§1) Cell lines stably transfected were generated using inducible expression vectors encoding human mGlu5 receptor using the Tetracycline-Regulated Expression system (T-REx™ system, Invitrogen, Life Technologies). Human mGluR5 open reading frame (ORF), comprehensive of the stop codon, were cloned into the pcDNA4/TO/myc-His™ A vector, carrying the TetO2. The insertion site was HindIII-PstI for mGluR5 receptors. The obtained constructs were then transfected into the T-REx CHO™ cell line using the FuGENE protocol (Roche); the CHO T-REx™ cell line stably expresses the Tet repressor (from the pcDNA6/TR plasmid) under the selection of blasticidin, 10 μg/ml. Stable clones were obtained selecting with zeocin 1 mg/ml and maintaining in ULTRA CHO medium (LONZA) supplemented with dialyzed FBS, zeocin, blasticidine, at 37° C., in an atmosphere of 5% CO2. The expression of h-mGluR5 receptors was de-repressed with 1 μg/ml tetracycline for 18 h before binding experimentation, while the expression of h-mGluR5 receptors was derepressed respectively with 3 ng/ml and 10 ng/ml tetracycline for 18 h before calcium fluorescence experimentation.
Radioligand Binding Assay at Cloned Human mGluR5 Receptor Subtype
Affinity at transmembrane glutamate metabotropic cloned human mGluR5 receptor was evaluated according to the methods of Anderson (Anderson et al., J Pharmacol. Exp. Ther., (2002), Vol. 303(3), pp. 1044-51), with some modifications. Human cloned mGluR5 was obtained by re-suspending CHO T-REx h-mGluR5 cells (50 μg/well) in 20 mM HEPES, 2 mM MgCl2, 2 mM CaCl2, pH 7.4, that then were incubated in a final volume of 1 ml for 60 min at 25° C. with 4 nM [^3H]MPEP in the absence or presence of competing drugs. Non-specific binding was determined in the presence of 10 μM MPEP. The incubation was stopped by addition of cold Tris buffer pH 7.4 and rapid filtration through 0.2% polyethyleneimine pretreated Filtermat 1204-401 (Perkin Elmer) filters. The filters were then washed with cold buffer and the radioactivity retained on the filters was counted by liquid scintillation spectrometry (Betaplate 1204 BS-Wallac).
(§2) The inhibition curves of the tested compounds at cloned mGluR5 subtypes were determined by nonlinear regression analysis using software Prism 4.0 (Graphpad, San Diego, Calif.). The IC50 values and pseudo-Hill slope coefficients were estimated by the program. The values for the inhibition constant, Ki, were calculated according to the equation Ki=IC50/(1+[L]/Kd), where [L] is the concentration of radioligand and Kd is the equilibrium dissociation constant of the radioligand-receptor complex (Cheng et al., Biochem. Pharmacol. (1973), Vol. 22, pp. 3099-3108).

[2] = target: T1, human mGlu5 receptor (Homo sapiens (Human), UniProt P41594); experiment: Calcium fluorescence measurements, antagonist potency (negative allosteric modulator activity); format: cell-based; conditions: EC80 of quisqualate as agonist, compounds applied 10 minutes before agonist
T1 sequence (P41594 21-1212): as above
Text: as §1
(§3) Cells were seeded into black-walled, clear-bottom, 96-well plates at a density of 80000 cell/well, in RPMI (without Phenol Red, without L-glutamine; Gibco LifeTechnologies, CA) supplemented with 10% dialyzed FBS. Following 18-h incubation with tetracycline, the cells were loaded with […] Ca^2+-sensitive fluorescent dye Fluo-4/AM (Molecular Probes) in Hanks' balanced saline solution (HBSS, Gibco LifeTechnologies, CA) with […] Hepes (Sigma) and 2.5 mM probenecid (Sigma), for 1 h at 37° C. The cells were washed three times with HBSS to remove extracellular dye. Fluorescence signals were measured by using the fluorescence microplate reader Flexstation III (Molecular Devices) at sampling intervals of 1.5 s for 60 s.
(§4) The antagonist potency was determined using the EC80 of the quisqualate used as agonist and the potentiation of mGlu5 activation was determined using the EC20 of the agonist (quisqualate or glutamate). The compounds were applied 10 minutes before the application of the agonist.
(§5) The negative allosteric modulator activity (expressed as IC50) and the positive allosteric modulator activity (expressed as EC50) of the compounds of the invention for the mGlu5 receptors is between 0.1 and 1000 nM.
as §2

[3] = target: T1, human mGlu5 receptor; experiment: Fold shift of agonist curve determination; format: cell-based; conditions: ratio of EC50 agonist (quisqualate or glutamate) curves in presence and in absence of test compound; compound at 1 μM
Text: as §1, §3
The PAM potency was evaluated by performing an agonist concentration response curve in the presence of the compounds. The compounds at fixed concentration (0.01 or 0.1 or 1 μM) were applied 10 minutes before the incubation of the agonist (quisqualate or glutamate) dose-response curve. The fold shift was determined as ratio of EC50 agonist curves in presence and in absence of test compound. For instance, and in particular compound 34 has a fold shift of 2.7.

[4] = target: T1, human mGlu5 receptor; experiment: Calcium fluorescence measurements, potentiation of mGlu5 activation (positive allosteric modulator activity); format: cell-based; conditions: EC20 of the agonist (quisqualate or glutamate), compounds applied 10 minutes before agonist
Text: as §1, §3, §4, §5

Compound: Cc1cccc(C(=O)N2CC/C(=C\C#Cc3cccc(Cl)c3)C(C)(C)C2)c1 [Example 43, {(4E)-4-[3-(3-chlorophenyl)prop-2-yn-1-ylidene]-3,3-dimethylpiperidin-1-yl}(3-methylphenyl)methanone]
mGlu5 Fold Shift @1 μM [3]: 2.8
pKi [1]: 8.13
pEC50 [4]: 7.19

Compound: Cc1cc(C(=O)N2CC/C(=C\C#Cc3cccc(CO)c3)C(C)(C)C2)c(C)o1 [Example 46, (2,5-dimethylfuran-3-yl)[(4E)-4-{3-[3-(hydroxymethyl)phenyl]prop-2-yn-1-ylidene}-3,3-dimethylpiperidin-1-yl]methanone]
mGlu5 Fold Shift @1 μM [3]: 3.79
pKi [1]: 6.49
pEC50 [4]: 7.43

Compound: COC(=O)N1CC/C(=C\C#Cc2nccc(C)n2)C1(C)C [Example 64, methyl (3E)-2,2-dimethyl-3-[3-(4-methylpyrimidin-2-yl)prop-2-yn-1-ylidene]pyrrolidine-1-carboxylate]
pKi [1]: 7.08

Compound: CCOC(=O)N1CC/C(=C\C#Cc2cc(C#N)ccn2)C1(C)C [Example 73, ethyl (3E)-3-[3-(4-cyanopyridin-2-yl)prop-2-yn-1-ylidene]-2,2-dimethylpyrrolidine-1-carboxylate]
pKi [1]: 7.53

Compound: CC1(C)CN(C(=O)c2cccc(Cl)c2)CC/C1=C\c1cc(-c2cccc(Cl)c2)[nH]n1 [Example 107, (3-chlorophenyl)[(4E)-4-{[5-(3-chlorophenyl)-1H-pyrazol-3-yl]methylidene}-3,3-dimethylpiperidin-1-yl]methanone]
mGlu5 Fold Shift @1 μM [3]: 7.66
pKi [1]: 6.03
pEC50 [4]: 6.92

Compound: CC1(C)CN(C(=O)c2cccc(Cl)c2)CC/C1=C\C#Cc1cccc(CO)c1 [Example 119, (3-chlorophenyl){(4E)-4-{3-[3-(hydroxymethyl)phenyl]prop-2-yn-1-ylidene}-3,3-dimethylpiperidin-1-yl]methanone]
mGlu5 Fold Shift @1 μM [3]: 2.9
pKi [1]: 8.09
pEC50 [4]: 7.30

Compound: CC1(C)CN(C(=O)c2cccc(O)c2)CC/C1=C\C#Cc1cccc(Cl)c1 [Example 126, {(4E)-4-[3-(3-chlorophenyl)prop-2-yn-1-ylidene]-3,3-dimethylpiperidin-1-yl}(3-hydroxyphenyl)methanone]
mGlu5 Fold Shift @1 μM [3]: 3.4
pEC50 [4]: 6.94

Compound: COc1cccc(C(=O)N2CC/C(=C\C#Cc3cccc(Cl)c3)C(C)(C)C2)c1 [Example 137, {(4E)-4-[3-(3-chlorophenyl)prop-2-yn-1-ylidene]-3,3-dimethylpiperidin-1-yl}(3-methoxyphenyl)methanone]
mGlu5 Fold Shift @1 μM [3]: 2.1
pEC50 [4]: 6.57

Compound: COc1cc(OC)nc(C(=O)N2CC/C(=C\C#Cc3cccc(Cl)c3)C(C)(C)C2)n1 [Example 166, {(4E)-4-[3-(3-chlorophenyl)prop-2-yn-1-ylidene]-3,3-dimethylpiperidin-1-yl}(4,6-dimethoxypyrimidin-2-yl)methanone]
mGlu5 Fold Shift @1 μM [3]: 1.35

Compound: CC1(C)CN(C(=O)c2cccc(Cl)c2)CC/C1=C\C#Cc1cccc(O)c1 [Example 191, (3-chlorophenyl){(4E)-4-[3-(3-hydroxyphenyl)prop-2-yn-1-ylidene]-3,3-dimethylpiperidin-1-yl}methanone]
mGlu5 Fold Shift @1 μM [3]: 3.9
pKi [1]: 8.13
pEC50 [4]: 6.65

Compound: COc1cccc(C(=O)N2CC/C(=C\C#Cc3cccc(C#N)c3)C(C)(C)C2)c1 [Example 196, 3-{(3E)-3-[1-(3-methoxybenzoyl)-3,3-dimethylpiperidin-4-ylidene]prop-1-yn-1-yl}benzonitrile]
mGlu5 Fold Shift @1 μM [3]: 2.2
pEC50 [4]: 7.06

Compound: Cc1cc(C(=O)N2CC/C(=C\C#Cc3cc(F)cc(C#N)c3)C(C)(C)C2)c(C)o1 [Example 200, 3-[(3E)-3-{1-[(2,5-dimethylfuran-3-yl)carbonyl]-3,3-dimethylpiperidin-4-ylidene}prop-1-yn-1-yl]-5-fluorobenzonitrile]
mGlu5 Fold Shift @1 μM [3]: 2.3
pKi [1]: 6.20
pEC50 [4]: 6.54

Continued, values first:

pKi [1]: 8.83
Compound: CCOC(=O)N1CC/C(=C\C#Cc2cccc(C)n2)C(C)(C)C1 [Example 3, ethyl (4E)-3,3-dimethyl-4-[3-(6-methylpyridin-2-yl)prop-2-yn-1-ylidene]piperidine-1-carboxylate]

pKi [1]: 9.00
Compound: CCOC(=O)N1CC/C(=C\C#Cc2cc(Cl)ccn2)C(C)(C)C1 [Example 18, ethyl (4E)-4-[3-(4-chloropyridin-2-yl)prop-2-yn-1-ylidene]-3,3-dimethylpiperidine-1-carboxylate]

pKi [1]: 9.05
Compound: CCOC(=O)N1CC/C(=C\C#Cc2cc(F)ccc2F)C(C)(C)C1 [Example 19, ethyl (4E)-4-[3-(2,5-difluorophenyl)prop-2-yn-1-ylidene]-3,3-dimethylpiperidine-1-carboxylate]

pKi [1]: 8.72
pIC50 [2]: 7.18
Compound: CCOC(=O)N1CC/C(=C\C#Cc2cccc(C(F)(F)F)c2)C(C)(C)C1 [Example 22, ethyl (4E)-3,3-dimethyl-4-{3-[3-(trifluoromethyl)phenyl]prop-2-yn-1-ylidene}piperidine-1-carboxylate]

mGlu5 Fold Shift @1 μM [3]: 2.14
pKi [1]: 8.80
pEC50 [4]: 7.28
Compound: CC1(C)CN(C(=O)c2cccc(Cl)c2)CC/C1=C\C#Cc1cccc(C#N)c1 [Example 116, 3-{(3E)-3-[1-(3-chlorobenzoyl)-3,3-dimethylpiperidin-4-ylidene]prop-1-yn-1-yl}benzonitrile]

mGlu5 Fold Shift @1 μM [3]: 5.5
pKi [1]: 8.40
pEC50 [4]: 7.41
Compound: CC1(C)CN(C(=O)c2cccc(Cl)c2)CC/C1=C\C#Cc1ccc(F)cc1 [Example 120, (3-chlorophenyl){(4E)-4-[3-(4-fluorophenyl)prop-2-yn-1-ylidene]-3,3-dimethylpiperidin-1-yl}methanone]

mGlu5 Fold Shift @1 μM [3]: 3.5
pKi [1]: 8.74
pEC50 [4]: 6.78
Compound: Cc1cccc(C(=O)N2CC/C(=C\C#Cc3cccc(Cl)c3)C(C)(C)C2)n1 [Example 128, {(4E)-4-[3-(3-chlorophenyl)prop-2-yn-1-ylidene]-3,3-dimethylpiperidin-1-yl}(6-methylpyridin-2-yl)methanone]

mGlu5 Fold Shift @1 μM [3]: 2.7
pKi [1]: 8.62
pEC50 [4]: 7.64
Compound: CCn1nc(C)c(C(=O)N2CC/C(=C\C#Cc3cccc(Cl)c3)C(C)(C)C2)n1 [Example 167, {(4E)-4-[3-(3-chlorophenyl)prop-2-yn-1-ylidene]-3,3-dimethylpiperidin-1-yl}(2-ethyl-5-methyl-2H-1,2,3-triazol-4-yl)methanone]

mGlu5 Fold Shift @1 μM [3]: 4.5
pKi [1]: 8.72
pEC50 [4]: 7.05
Compound: O=C(c1cccc(Cl)c1)N1CC/C(=C\C#Cc2cccc(Cl)c2)C(F)(F)C1 [Example 201, (3-chlorophenyl){(4E)-4-[3-(3-chlorophenyl)prop-2-yn-1-ylidene]-3,3-difluoropiperidin-1-yl}methanone]
